# In patent US20080207719A1, “Treatment of Epilepsy” (ORION CORPORATION, priority 2003, published 2008):
# “And” between values parts separate entries of the source, which are not always exact repeats. Equal entries are not always repeated.
# Experiments:
# [1] = tested on: Male Harlan Sprague-Dawley rats; experiment: Development of epilepsy after status epilepticus (SE) induced by electrical stimulation of the amygdala; chronic treatment started 1 wk after SE; format: in vivo; details: for Number of animals with mild (≦1 seizure/day) epilepsy, during treatment / Number of animals with severe (>1 seizure/day) epilepsy, during treatment / Number of animals with mild (≦1 seizure/day) epilepsy, All / Number of animals with severe (>1 seizure/day) epilepsy, All / Number of animals with mild (≦1 seizure/day) epilepsy, after treatment / Number of animals with severe (>1 seizure/day) epilepsy, after treatment: rats after SE; for Number of animals with mild (≦1 seizure/day) epilepsy, during treatment / Number of animals with severe (>1 seizure/day) epilepsy, during treatment: atipamezole 100 μg/kg/h s.c. minipump for 9 wk starting 1 wk after SE, DZP 20 mg/kg i.p. at 3 h after beginning of SE; for Number of animals with severe (>1 seizure/day) epilepsy, during treatment: animals/epileptic animals; for Number of animals with mild (≦1 seizure/day) epilepsy, All / Number of animals with severe (>1 seizure/day) epilepsy, All: both follow-ups (All); for Number of animals with mild (≦1 seizure/day) epilepsy, after treatment / Number of animals with severe (>1 seizure/day) epilepsy, after treatment: follow-up after the 9 wk treatment
# Procedure: To mimic the clinical environment, α2-adrenoceptor antagonist treatment with atipamezole was started 1 wk after induction of status epilepticus (SE) with subcutaneous Alzet minipumps and continued for 9 wk. Two independent studies were carried out.
# Male Harlan Sprague-Dawley rats (300-350 g; Netherlands) were used in this study. After implantation of electrodes, rats were housed in individual cages at a temperature of 19-21° C., with humidity at 50-60% and lights on 7.00-19.00. Standard food pellets and water were freely available.
# The animals were anaesthetized with an intraperitoneal injection of sodium pentobarbital (60 mg/kg) and chloral hydrate (60 mg/kg) and inserted into a stereotaxic frame (lambda and bregma at the same horizontal level). A pair of stimulating electrodes (0.5 mm tip separation) was implanted into the lateral nucleus of the left amygdala (3.6 mm posterior, 5.0 mm lateral, and 6.5 mm ventral to bregma). One stainless steel screw was inserted into the skull above the right frontal cortex and served as cortical electrode (3 mm anterior to the bregma, 2 mm lateral to midline). Two stainless steel screws were inserted into the skull bilaterally over the cerebellum, which served as indifferent and ground electrodes. The electrodes were fixed with dental acrylate. The rats were allowed to recover from surgical operation for 14 d, after which electrical stimulation was initiated.
# After discharge threshold was assessed by stimulating the amygdala with a one-second train of one-msec bipolar square-wave pulses (60 Hz, 50-400 μA peak to peak). Only those rats in which after discharges could be induced at 400 μA or at lower current level were included in the study.
# To induce SE, the amygdala was stimulated repeatedly at 500 msec intervals with a train of pulses lasting 100 msec (1 msec 60 Hz bipolar pulses at 400 μA peak to peak). […] Once the criterion of SE was achieved, no further stimulation was given. After 3 h, SE was terminated by injecting diazepam 20 mg/kg (i.p.).
# Vehicle (0.9% saline, Natrosteril 9 mg/ml, Baxter, Vantaa, Finland) was administered via subcutaneous Alzet minipumps with a pumping rate of 9.15 μl/h in 1-wk and 2.61 μl/h in 8-wk pumps starting 1 wk after stimulation. Minipumps were implanted subcutaneously to the back between the scapulae according to the instructions provided by manufacturer. For implantation, animals were anesthetized with an intraperitoneal injection of sodium pentobarbital (60 mg/kg) and chloral hydrate (60 mg/kg).
# Diazepam was administered at 3 h after the beginning of SE (20 mg/kg, i.p.). Atipamezole treatment was started 1 wk after SE. Compound was administered with subcutaneous Alzet osmotic minipumps and continued for 9 wk. Atipamezole was dissolved into sterile 0.9% NaCl. The concentration of atipamezole was adjusted according to the weight of the rat and pumping rate to obtain a constant flow-rate of 100 μg/kg/h.
# • DZP (diazepam)+vehicle (n=11): Rats with SE treated with DZP (20 mg/kg, i.p.) at 3 h after the beginning of SE. Chronic treatment with vehicle (0.9% NaCl, subcutaneous Alzet minipumps) for 9 wk starting 1 wk after SE. • DZP+atipamezole (n=7): Rats with SE treated with DZP (20 mg/kg, i.p.) at 3 h after the beginning of SE. Chronic treatment with atipamezole (100 μg/kg/h, subcutaneous Alzet minipumps) for 9 wk starting 1 wk after SE.
# Controls (n=9): Operated, non-stimulated and non-treated controls.
# Ø+vehicle (n=11): No treatment at 3 h after the beginning of SE. Chronic treatment with vehicle (0.9% NaCl in subcutaneous Alzet minipump) for 9 wk starting 1 wk after SE.
# DZP+vehicle (n=10): Diazepam treatment (20 mg/kg, i.p.) at 3 h after the beginning of SE. Chronic treatment with vehicle (0.9% NaCl in subcutaneous Alzet minipump) for 9 wk starting 1 wk after SE.
# Ø+atipamezole (n=10). No treatment at 3 h after the beginning of SE. Chronic treatment with atipamezole (100 μg/kg/h, subcutaneous Alzet minipumps) for 9 wk starting 1 wk after SE.
# DZP+atipamezole (n=12). […]
# kainate-induced seizures = details: acute administration; Halonen T. et al., Brain Res 1995; cited from earlier work
# alpha2-adrenoceptor = details: background statement, no species differences (human and rodent); cited from earlier work
# cortical excitability = details: oral administration, humans; Plewnia C et al., Neurosci Lett 2001; cited from earlier work
# [2] = listed as Ø + atipamezole, hydrochloride
# [3] = listed as Ø/DZP + atipamezole, hydrochloride
compound,measurement,setting,value
CN1C(=O)CN=C(c2ccccc2)c2cc(Cl)ccc21 [DZP + vehicle],Rats with >1 seizure/day,[1]; data combined from the two studies,50%
same,"Number of animals with mild (≦1 seizure/day) epilepsy, during treatment",[1],1/4 and 6/10
same,"Number of animals with severe (>1 seizure/day) epilepsy, during treatment",[1],3/4 and 4/10
same,"Number of animals with mild (≦1 seizure/day) epilepsy, All",[1],2/4 and 5/10
same,"Number of animals with severe (>1 seizure/day) epilepsy, All",[1],2/4 and 5/10
same,"Number of animals with mild (≦1 seizure/day) epilepsy, after treatment",[1],1/3 and 5/9
same,"Number of animals with severe (>1 seizure/day) epilepsy, after treatment",[1],2/3 and 4/9
"CCC1(c2c[nH]cn2)Cc2ccccc2C1.Cl [atipamezole, 4-(2-ethyl-2,3-dihydro-1H-inden-2-yl)-1H-imidazole hydrochloride]","Number of animals with severe (>1 seizure/day) epilepsy, during treatment",[1]; [2],1/8
same,"Number of animals with severe (>1 seizure/day) epilepsy, during treatment",[1]; [3],1/20
same,"Number of animals with mild (≦1 seizure/day) epilepsy, during treatment",[1]; [2],7/8
same,"Number of animals with mild (≦1 seizure/day) epilepsy, during treatment",[1]; [3],19/20
same,"Number of animals with mild (≦1 seizure/day) epilepsy, All",[1]; [2],7/8
same,"Number of animals with severe (>1 seizure/day) epilepsy, All",[1]; [2],1/8
same,"Number of animals with mild (≦1 seizure/day) epilepsy, All",[1]; [3],21/22
same,"Number of animals with severe (>1 seizure/day) epilepsy, All",[1]; [3],1/22
same,"Number of animals with mild (≦1 seizure/day) epilepsy, after treatment",[1]; [2],6/7
same,"Number of animals with severe (>1 seizure/day) epilepsy, after treatment",[1]; [2],1/7
same,"Number of animals with mild (≦1 seizure/day) epilepsy, after treatment",[1]; [3],19/20
same,"Number of animals with severe (>1 seizure/day) epilepsy, after treatment",[1]; [3],1/20
same,Effect on epileptogenesis,"[1]; summary statement, epilepsy that develops is milder and can be non-progressive",clear disease-modifying effect on epileptogenesis
same,Effect on kainate-induced seizures,kainate-induced seizures,proconvulsant effect
same,alpha2/alpha1-selectivity ratio,alpha2-adrenoceptor,high
COC(=O)[C@@H]1[C@H]2C[C@H]3c4[nH]c5ccccc5c4CCN3C[C@@H]2CC[C@@H]1O [yohimbine],Cortical excitability induced by transcranial magnetic stimulation,cortical excitability,increased cortical excitability
